Test results as given in patent US20230085307A1, “PYRIDAZINONE COMPOUND AND HERBICIDE” (NISSAN CHEMICAL CORPORATION, priority 2019, published 2023).

Key:
persian speedwell = test: Test Example 5: herbicidal effect by foliage application, plastic box (Table 20, symbol R); assay type: in vivo, Persian speedwell (Veronica persica); settings: foliage application, three weeks after application
Summary of the method: (§1)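 Post-emergence foliar test in sterilized diluvial soil. Compound applied as water-diluted emulsion at a predetermined rate to 14-day-old plants; evaluation at three weeks.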

Japanese bulrush = test: Test Example 2: herbicidal activity, application during weed generation under submerged conditions (Table 17, symbol B); assay type: in vivo, Japanese bulrush (Schoenoplectus juncoides); settings: application during weed generation, submerged conditions
Summary of the method: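 In this pot test, flooded alluvial soil (water depth 4 cm) holds all three species sown as a mixture. Once seedlings have one to two leaves, the compound's emulsion, thinned with water to the intended dose, is poured on the water; grading follows after three weeks on the earlier criteria.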

chickweed = test: Test Example 5: herbicidal effect by foliage application, plastic box (Table 20, symbol P); assay type: in vivo, common chickweed (Stellaria media); settings: foliage application, three weeks after application
Summary of the method: as §1

Italian ryegrass [1] = test: Test Example 4: herbicidal effect by soil treatment (Table 19, symbol K); assay type: in vivo, Italian ryegrass (Lolium multiflorum)
Summary of the method: (§2)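 Emulsion of test compound, water-diluted to predetermined amount, sprayed on soil after sowing (seed depth ~1.5 cm, sterilized diluvial soil). Greenhouse, 25–30° C. Effect graded at three weeks post-spray.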

Italian ryegrass [2] = test: Test Example 5: herbicidal effect by foliage application, plastic box (Table 20, symbol K); assay type: in vivo, Italian ryegrass (Lolium multiflorum); settings: foliage application, three weeks after application
Summary of the method: as §1

blackgrass [3] = test: Test Example 5: herbicidal effect by foliage application, plastic box (Table 20, symbol J); assay type: in vivo, blackgrass (Alopecurus myosuroides); settings: foliage application, three weeks after application
Summary of the method: as §1

lambsquarters [4] = test: Test Example 4: herbicidal effect by soil treatment (Table 19, symbol O); assay type: in vivo, lambsquarters (Chenopodium album)
Summary of the method: as §2

blackgrass [5] = test: Test Example 4: herbicidal effect by soil treatment (Table 19, symbol J); assay type: in vivo, blackgrass (Alopecurus myosuroides)
Summary of the method: as §2

green foxtail = test: Test Example 4: herbicidal effect by soil treatment (Table 19, symbol G); assay type: in vivo, green foxtail (Setaria viridis)
Summary of the method: as §2

rice flat sedge = test: Test Example 3: herbicidal effect by foliage application, Wagner pot (Table 18, symbol E); assay type: in vivo, rice flat sedge (Cyperus iria)
Summary of the method: (§3)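 Plants were sown in alluvial soil held under 0.1–0.5 cm standing water and grown 14 days in a greenhouse at 25–30 °C. An emulsifiable formulation, water-diluted to the set dose, was then sprayed onto the foliage, and effects were scored three weeks later using previously defined criteria.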

lambsquarters [6] = test: Test Example 5: herbicidal effect by foliage application, plastic box (Table 20, symbol O); assay type: in vivo, lambsquarters (Chenopodium album); settings: foliage application, three weeks after application
Summary of the method: as §1

wild oat = test: Test Example 5: herbicidal effect by foliage application, plastic box (Table 20, symbol I); assay type: in vivo, wild oat (Avena fatua); settings: foliage application, three weeks after application
Summary of the method: as §1

Chinese sprangletop = test: Test Example 3: herbicidal effect by foliage application, Wagner pot (Table 18, symbol D); assay type: in vivo, chinese sprangletop (Leptochloa chinensis)
Summary of the method: as §3

barnyard grass [7] = test: Test Example 5: herbicidal effect by foliage application, plastic box (Table 20, symbol H); assay type: in vivo, barnyard grass (Echinochloa crus-galli); settings: foliage application, three weeks after application
Summary of the method: as §1

barnyard grass [8] = test: Test Example 4: herbicidal effect by soil treatment (Table 19, symbol H); assay type: in vivo, barnyard grass (Echinochloa crus-galli)
Summary of the method: as §2

windgrass = test: Test Example 5: herbicidal effect by foliage application, plastic box (Table 20, symbol L); assay type: in vivo, windgrass (Apera spica-venti); settings: foliage application, three weeks after application
Summary of the method: as §1

velvetleaf = test: Test Example 5: herbicidal effect by foliage application, plastic box (Table 20, symbol M); assay type: in vivo, velvetleaf (Abutilon theophrasti); settings: foliage application, three weeks after application
Summary of the method: as §1

[9] = amount of applied herbicide 320 g/ha
[10] = amount of applied herbicide 323 g/ha

| Structure (SMILES) | R: persian speedwell, herbicidal effect grade (persian speedwell; 320 g/ha) | herbicidal effect rating, B: Japanese bulrush (Japanese bulrush; AAH 320 g/ha) | P: chickweed, herbicidal effect grade (chickweed; 320 g/ha) | K: Italian ryegrass, herbicidal effect grade (Italian ryegrass [1]; [9]) | K: Italian ryegrass, herbicidal effect grade (Italian ryegrass [2]; 320 g/ha) | J: blackgrass, herbicidal effect grade (blackgrass [3]; 320 g/ha) | O: lambsquarters, herbicidal effect grade (lambsquarters [4]; [9]) | J: blackgrass, herbicidal effect grade (blackgrass [5]; [9]) | G: green foxtail, herbicidal effect grade (green foxtail; [9]) | herbicidal effect on rice flat sedge (E) (rice flat sedge; 320 g/ha) | O: lambsquarters, herbicidal effect grade (lambsquarters [6]; 320 g/ha) | I: wild oat, herbicidal effect grade (wild oat; 320 g/ha) | herbicidal effect on Chinese sprangletop (D) (Chinese sprangletop; 320 g/ha) | H: barnyard grass, herbicidal effect grade (barnyard grass [7]; 320 g/ha) | H: barnyard grass, herbicidal effect grade (barnyard grass [8]; [9]) | L: windgrass, herbicidal effect grade (windgrass; 320 g/ha) | M: velvetleaf, herbicidal effect grade (velvetleaf; 320 g/ha) | also measured |
| --- | --- | --- | --- | --- | --- | --- | --- | --- | --- | --- | --- | --- | --- | --- | --- | --- | --- | --- |
| CCOc1ccc2c(-c3c(O)c(C)nn(C)c3=O)c(-c3ccccc3OCC)sc2c1 [3-093] | 5 (Herbicidal rate of 90% or more (almost completely withered)) | 5 (Herbicidal rate of 90% or more (almost completely withered)) | 5 (Herbicidal rate of 90% or more (almost completely withered)) | 4 (Herbicidal rate of 70% or more and less than 90%) | 5 (Herbicidal rate of 90% or more (almost completely withered)) | 4 (Herbicidal rate of 70% or more and less than 90%) | 4 (Herbicidal rate of 70% or more and less than 90%) | 3 (Herbicidal rate of 40% or more and less than 70%) | 5 (Herbicidal rate of 90% or more (almost completely withered)) | 5 (Herbicidal rate of 90% or more (almost completely withered)) | 5 (Herbicidal rate of 90% or more (almost completely withered)) | 4 (Herbicidal rate of 70% or more and less than 90%) | 5 (Herbicidal rate of 90% or more (almost completely withered)) | 5 (Herbicidal rate of 90% or more (almost completely withered)) | 4 (Herbicidal rate of 70% or more and less than 90%) | 5 (Herbicidal rate of 90% or more (almost completely withered)) | 5 (Herbicidal rate of 90% or more (almost completely withered)) | – |
| CCCC(=O)Oc1c(C)nn(C)c(=O)c1-c1c(-c2ccccc2OCC)sc2cc(OCC)ccc12 [3-094] | – | – | – | – | – | – | – | – | – | – | – | – | – | – | – | – | – | R: persian speedwell, herbicidal effect grade (persian speedwell; 323 g/ha): 5 (Herbicidal rate of 90% or more (almost completely withered)); herbicidal effect rating, B: Japanese bulrush (Japanese bulrush; AAH 323 g/ha): 4 (Herbicidal rate of 70% or more and less than 90%); P: chickweed, herbicidal effect grade (chickweed; 323 g/ha): 5 (Herbicidal rate of 90% or more (almost completely withered)); K: Italian ryegrass, herbicidal effect grade (Italian ryegrass [1]; [10]): 4 (Herbicidal rate of 70% or more and less than 90%); K: Italian ryegrass, herbicidal effect grade (Italian ryegrass [2]; 323 g/ha): 3 (Herbicidal rate of 40% or more and less than 70%); J: blackgrass, herbicidal effect grade (blackgrass [3]; 323 g/ha): 4 (Herbicidal rate of 70% or more and less than 90%); O: lambsquarters, herbicidal effect grade (lambsquarters [4]; [10]): 4 (Herbicidal rate of 70% or more and less than 90%); J: blackgrass, herbicidal effect grade (blackgrass [5]; [10]): 2 (Herbicidal rate of 20% or more and less than 40%); G: green foxtail, herbicidal effect grade (green foxtail; [10]): 3 (Herbicidal rate of 40% or more and less than 70%); herbicidal effect on rice flat sedge (E) (rice flat sedge; 323 g/ha): 5 (Herbicidal rate of 90% or more (almost completely withered)); O: lambsquarters, herbicidal effect grade (lambsquarters [6]; 323 g/ha): 4 (Herbicidal rate of 70% or more and less than 90%); I: wild oat, herbicidal effect grade (wild oat; 323 g/ha): 5 (Herbicidal rate of 90% or more (almost completely withered)); herbicidal effect on Chinese sprangletop (D) (Chinese sprangletop; 323 g/ha): 5 (Herbicidal rate of 90% or more (almost completely withered)); H: barnyard grass, herbicidal effect grade (barnyard grass [7]; 323 g/ha): 5 (Herbicidal rate of 90% or more (almost completely withered)); H: barnyard grass, herbicidal effect grade (barnyard grass [8]; [10]): 0 (Herbicidal rate of 5% or less (almost no effect)); L: windgrass, herbicidal effect grade (windgrass; 323 g/ha): 5 (Herbicidal rate of 90% or more (almost completely withered)); M: velvetleaf, herbicidal effect grade (velvetleaf; 323 g/ha): 5 (Herbicidal rate of 90% or more (almost completely withered)) |
| CCCC(=O)Oc1c(C)nn(C)c(=O)c1-c1c(-c2ccc(F)cc2OCC)sc2cc(OCC)ccc12 [3-096] | 5 (Herbicidal rate of 90% or more (almost completely withered)) | 5 (Herbicidal rate of 90% or more (almost completely withered)) | 5 (Herbicidal rate of 90% or more (almost completely withered)) | 2 (Herbicidal rate of 20% or more and less than 40%) | 3 (Herbicidal rate of 40% or more and less than 70%) | 5 (Herbicidal rate of 90% or more (almost completely withered)) | 5 (Herbicidal rate of 90% or more (almost completely withered)) | 3 (Herbicidal rate of 40% or more and less than 70%) | 4 (Herbicidal rate of 70% or more and less than 90%) | 5 (Herbicidal rate of 90% or more (almost completely withered)) | 5 (Herbicidal rate of 90% or more (almost completely withered)) | 5 (Herbicidal rate of 90% or more (almost completely withered)) | 5 (Herbicidal rate of 90% or more (almost completely withered)) | 5 (Herbicidal rate of 90% or more (almost completely withered)) | 0 (Herbicidal rate of 5% or less (almost no effect)) | 5 (Herbicidal rate of 90% or more (almost completely withered)) | 5 (Herbicidal rate of 90% or more (almost completely withered)) | – |
| CCCOc1ccc2c(-c3c(O)c(C)nn(C)c3=O)c(-c3ccccc3OC)sc2c1 [3-099] | 5 (Herbicidal rate of 90% or more (almost completely withered)) | 4 (Herbicidal rate of 70% or more and less than 90%) | 5 (Herbicidal rate of 90% or more (almost completely withered)) | 5 (Herbicidal rate of 90% or more (almost completely withered)) | 5 (Herbicidal rate of 90% or more (almost completely withered)) | 5 (Herbicidal rate of 90% or more (almost completely withered)) | 5 (Herbicidal rate of 90% or more (almost completely withered)) | 4 (Herbicidal rate of 70% or more and less than 90%) | 5 (Herbicidal rate of 90% or more (almost completely withered)) | 5 (Herbicidal rate of 90% or more (almost completely withered)) | 5 (Herbicidal rate of 90% or more (almost completely withered)) | 2 (Herbicidal rate of 20% or more and less than 40%) | 5 (Herbicidal rate of 90% or more (almost completely withered)) | 5 (Herbicidal rate of 90% or more (almost completely withered)) | 4 (Herbicidal rate of 70% or more and less than 90%) | 5 (Herbicidal rate of 90% or more (almost completely withered)) | 5 (Herbicidal rate of 90% or more (almost completely withered)) | – |
| CCCOc1ccc2c(-c3c(O)c(C)nn(C)c3=O)c(-c3ccccc3OCC)sc2c1 [3-103] | 5 (Herbicidal rate of 90% or more (almost completely withered)) | 3 (Herbicidal rate of 40% or more and less than 70%) | 5 (Herbicidal rate of 90% or more (almost completely withered)) | 5 (Herbicidal rate of 90% or more (almost completely withered)) | 5 (Herbicidal rate of 90% or more (almost completely withered)) | 4 (Herbicidal rate of 70% or more and less than 90%) | 5 (Herbicidal rate of 90% or more (almost completely withered)) | 3 (Herbicidal rate of 40% or more and less than 70%) | 4 (Herbicidal rate of 70% or more and less than 90%) | 5 (Herbicidal rate of 90% or more (almost completely withered)) | 4 (Herbicidal rate of 70% or more and less than 90%) | 2 (Herbicidal rate of 20% or more and less than 40%) | 5 (Herbicidal rate of 90% or more (almost completely withered)) | 5 (Herbicidal rate of 90% or more (almost completely withered)) | 4 (Herbicidal rate of 70% or more and less than 90%) | 4 (Herbicidal rate of 70% or more and less than 90%) | 5 (Herbicidal rate of 90% or more (almost completely withered)) | – |
